Results reported in patent US10167270B2, “Substituted quinazoline compounds and uses thereof for modulating glucocerebrosidase activity” (Northwestern University, priority 2015, dated 2019).

Each compound was assayed against Glucocerebrosidase (Homo sapiens (Human), UniProt P04062) (assay: Glucocerebrosidase activity assay with blue substrate (4MU-Glc)). Details: direction not given.
Format: biochemical
Method: The compounds in DMSO solution 0.5 μL/well were transferred to a black 96-well plate. The final titration was 24 nM to 50 μM, 12 concentrations, 2 times dilution. […] After 5 min of incubation at room temperature, the enzyme reaction was initiated by the addition of 33 μL/well blue substrate. Final concentrations of the blue substrate (4MU-Glc) was 1.5 mM. The blue substrate reaction was terminated by the addition of 33 μL/well stop solution (1 M NaOH and 1 M glycine mixture, pH 10) after 30 min of incubation at 37° C. The fluorescence was then measured in the Biotek Synergy H1 multi-mode plate reader with Ex=365 nm and Em=440 nm.
Additional compounds were prepared and tested according to the procedures provided in the examples above.
Additional substituted quinazoline compounds were prepared and tested according to the procedures provided in the examples above.

Chain of Glucocerebrosidase (P04062 40-536): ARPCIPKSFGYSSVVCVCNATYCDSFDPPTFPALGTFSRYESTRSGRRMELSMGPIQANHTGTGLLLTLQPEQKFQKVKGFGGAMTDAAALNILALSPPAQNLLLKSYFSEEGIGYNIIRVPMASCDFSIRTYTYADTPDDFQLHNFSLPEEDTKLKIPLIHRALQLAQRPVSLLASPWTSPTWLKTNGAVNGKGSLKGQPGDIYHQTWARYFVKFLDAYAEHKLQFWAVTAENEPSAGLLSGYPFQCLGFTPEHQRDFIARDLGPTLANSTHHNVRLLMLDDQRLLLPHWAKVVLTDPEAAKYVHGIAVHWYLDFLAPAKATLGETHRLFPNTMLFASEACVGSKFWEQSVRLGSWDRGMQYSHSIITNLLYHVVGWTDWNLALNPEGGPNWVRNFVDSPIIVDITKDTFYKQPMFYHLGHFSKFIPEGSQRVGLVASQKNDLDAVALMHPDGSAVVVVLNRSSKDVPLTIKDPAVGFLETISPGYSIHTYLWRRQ

Q: For CN(CCOc1ccccc1)c1nc(-c2ccc(F)cc2)nc2ccccc12 [compound 129], which “Activity AC50 or IC50” value is on record?
A: Inactive

Q: How did the “Activity AC50 or IC50” value turn out when CN(CCOc1ccccc1)c1nc(-c2cccs2)nc2ccccc12 [compound 125] was run?
A: Inactive

Same assay, conditions: marked (act), activator, AC50

Q: c1ccc(C2CCCN(c3nc(-c4cccnc4)nc4ccccc34)C2)cc1 (stereo not shown) [compound 82] was tested. Which “IC50 or AC50 (act)” value did it give?
A: Weak (act)

Q: Which “IC50 or AC50 (act)” value does the source give for Nc1nc(-c2cccnc2)nc2ccccc12 [compound 35] here?
A: Weak (act)

Q: How did the “IC50 or AC50 (act)” value turn out when c1ccc(Nc2nc(-c3cccnc3)nc3ccccc23)cc1 [compound 50] was run?
A: Weak (act)

Same assay, conditions: marked (act), activator, AC50; read-out: IC50 or AC50 (act)

Q: With c1cncc(-c2nc(NCCc3c[nH]c4ccccc34)c3ccccc3n2)c1 [compound 72] as the compound, how does the AC50 read?
A: 1.28 µM

Same assay, conditions: marked (inh), inhibitor

Q: For CN(c1nc(-c2cccnc2)nc2ccccc12)[C@@H]1CCc2ccccc2C1 [compound 88], which “IC50 or AC50 (inh)” value is on record?
A: Weak (inh)

Same assay, conditions: marked (inh), inhibitor; read-out: IC50 or AC50 (inh)

Q: Which IC50 does the source give for CC1CCC(Nc2nc(-c3cccnc3)nc3ccccc23)CC1 (stereo not shown) [compound 77] here?
A: 20 nM

Q: With Ic1ccc2c(c1)CC(Nc1nc(-c3cccnc3)nc3ccccc13)C2 (stereo not shown) [compound 89] as the compound, how does the IC50 read?
A: 168 nM

Q: Which IC50 does the source give for c1cncc(-c2nc(NC3CCCc4ccccc43)c3ccccc3n2)c1 (stereo not shown) [compound 68] here?
A: 1120 nM

Q: For c1cncc(-c2nc(NC3CC3)c3ccccc3n2)c1 [compound 42], which IC50 is on record?
A: 39800 nM

Q: How did the IC50 turn out when c1cncc(-c2nc(N3CCNCC3)c3ccccc3n2)c1 [compound 23] was run?
A: 35500 nM

Q: For CN(c1nc(-c2cccnc2)nc2ccccc12)[C@H]1CCc2ccccc2C1 [compound 84], which IC50 is on record?
A: 500 nM

Q: Which IC50 does the source give for c1cncc(-c2nc(NC3CC4CCC3C4)c3ccccc3n2)c1 (stereo not shown) [compound 78] here?
A: 355 nM

Q: Which IC50 does the source give for c1ccc(CCCCNc2nc(-c3cccnc3)nc3ccccc23)cc1 [compound 53] here?
A: 1580 nM

Q: Cc1ccc(CCNc2nc(-c3cccnc3)nc3ccccc23)cc1 [compound 73] was tested. Which IC50 did it give?
A: 1780 nM

Q: For c1cncc(-c2nc(NC3CCCCCC3)c3ccccc3n2)c1 [compound 58], which IC50 is on record?
A: 63 nM

Q: With CC1CCCCC1Nc1nc(-c2cccnc2)nc2ccccc12 (stereo not shown) [compound 48] as the compound, how does the IC50 read?
A: 89 nM

Q: How did the IC50 turn out when CN(c1nc(-c2cccnc2)nc2ccccc12)C1Cc2ccccc2C1 [compound 2] was run?
A: 2150 nM

Q: How did the IC50 turn out when c1ccc(CCNc2nc(-c3cccnc3)nc3ccccc23)nc1 [compound 69] was run?
A: 1120 nM

Q: Which IC50 does the source give for c1cncc(-c2nc(NC3CCc4ccccc43)c3ccccc3n2)c1 (stereo not shown) [compound 67] here?
A: 891 nM

Q: For c1cncc(-c2nc(NCC3COc4ccccc4O3)c3ccccc3n2)c1 (stereo not shown) [compound 20], which IC50 is on record?
A: 7940 nM

Same assay, conditions: marked activator, AC50; read-out: Activity AC50 or IC50 (activator)

Q: For c1cncc(-c2nc(N3CCc4c([nH]c5ccccc45)C3)c3ccccc3n2)c1 [compound 94], which AC50 is on record?
A: 2.82 µM

Same assay, conditions: marked inhibitor

Q: With CN(CCOc1ccccc1)c1nc(-c2ccc(N)cc2)nc2ccccc12 [compound 144] as the compound, how does the “Activity AC50 or IC50 (inhibitor)” value read?
A: Weak inhibitor

Same assay, conditions: marked inhibitor, nM indicated; read-out: Activity AC50 or IC50 (inhibitor)

Q: For CC(C)(C)OC(=O)NCCCCCC(=O)Nc1ccc(-c2nc(NC3Cc4ccccc4C3)c3ccccc3n2)cc1 [compound 145], which IC50 is on record?
A: 5.6 nM

Q: With NCCCCCC(=O)Nc1ccc(-c2nc(NC3Cc4ccccc4C3)c3ccccc3n2)cc1 [compound 147] as the compound, how does the IC50 read?
A: 7.5 nM

Q: CC(C)(C)OC(=O)NCCOCCOCC(=O)Nc1ccc(-c2nc(NC3Cc4ccccc4C3)c3ccccc3n2)cc1 [compound 146] was tested. Which IC50 did it give?
A: 39.8 nM

Q: For O=C(CCCC[C@@H]1SC[C@@H]2NC(=O)N[C@@H]21)NCCOCCOCCOCCOCCC(=O)NCCCCCC(=O)Nc1ccc(-c2nc(NC3Cc4ccccc4C3)c3ccccc3n2)cc1 [compound 156], which IC50 is on record?
A: 1.95 nM

Same assay, conditions: marked inhibitor; read-out: Activity AC50 or IC50 (inhibitor)

Q: CN(CCOCc1ccccc1)c1nc(-c2cccnc2)nc2ccccc12 [compound 141] was tested. Which IC50 did it give?
A: 11200 nM

Q: For CC(CNc1nc(-c2cccnc2)nc2ccccc12)Oc1ccccc1 (stereo not shown) [compound 92], which IC50 is on record?
A: 5010 nM

Q: Oc1ccc2c(c1)C[C@@H](Nc1nc(-c3cccnc3)nc3ccccc13)CC2 [compound 98] was tested. Which IC50 did it give?
A: 79 nM

Q: Which IC50 does the source give for c1ccc(OCCCNc2nc(-c3cccnc3)nc3ccccc23)cc1 [compound 91] here?
A: 2820 nM

Q: c1cncc(-c2nc(NCCCCCCCCCCNc3nc(-c4cccnc4)nc4ccccc34)c3ccccc3n2)c1 [compound 108] was tested. Which IC50 did it give?
A: 141 nM

Q: How did the IC50 turn out when c1ccc(COCCNc2nc(-c3cccnc3)nc3ccccc23)cc1 [compound 140] was run?
A: 11200 nM
